Measured values published in patent publication US12077486B2, “Quaternary fatty amidoamine detergents” (NOURYON CHEMICALS INTERNATIONAL B.V., priority 2018, dated 2024).

Assays:
[1] = solubility in an a-polar medium; format: physicochemical
Protocol: Throughout this document, unless indicated differently, the weight percentages of the compositions are based on the total weight of the composition, whereby the total weight of the composition is 100 wt %. The term water-soluble is used for materials that dissolve in an amount of at least 1 g per liter of demineralized water at 25° C. Where used, the term “consisting” also embraces “consisting substantially”, but may optionally be limited to its strict meaning of “consisting entirely”. An a-polar (nonpolar) medium is herein defined as a material having a dielectric coefficient of less than 7 at 20° C. Typically it is a liquid at the temperature of use. Suitably it is a medium with a dielectric coefficient at 20° C. of less than 6.5, 6, 5.5, 5, 4.5, 4, 3.5, or 3. The dielectric constant is measured in accordance with ASTM D150. The term “substantially free” is used fora moiety that is present in an amount of less than 2% by weight. Similarly, the term “essentially” is used to denote a composition that consists for more than 95% by weight of the indicated components.

[2] = stabilization of a dispersion of solids in a-polar medium; settings: over a wide range of temperatures

CCCCC/C=C\CCC(CCCCCCCC(=O)NCCC[N+](C)(C)C)C(CCCCCCCC)CCCCCCCCC(=O)NCCC[N+](C)(C)C (centres unmarked) [Preparation Example 1]
dissolution in an a-polar medium [1]: easily dissolve
stabilization of a dispersion of solids in the dissolution [2]: perfectly stabilize
